target: recombinant USP30 (amino acids 57-517 of the human sequence) (Homo sapiens (Human), UniProt Q70CQ3); assay: In vitro USP30 biochemical assay (Ubiquitin-Rhodamine substrate); settings: 1.5 nM recombinant USP30, 25 nM Ubiquitin-Rhodamine, fluorescence
Description: In vitro biochemical assay to establish the potency of compounds for USP30 inhibition: a 384-well plate assay using a fluorophore tagged substrate of USP30 was used for in vitro screening of compounds. Each compound was tested at
10 different concentrations (0.5 to 10,000 nM) in duplicate wells. […] Data were analyzed using Graph Pad Prism software with a four-parameter (floating slope) fit to log concentration data to determine IC50s.

Sequence of recombinant USP30 (amino acids 57-517 of the human sequence) (Q70CQ3 57-517): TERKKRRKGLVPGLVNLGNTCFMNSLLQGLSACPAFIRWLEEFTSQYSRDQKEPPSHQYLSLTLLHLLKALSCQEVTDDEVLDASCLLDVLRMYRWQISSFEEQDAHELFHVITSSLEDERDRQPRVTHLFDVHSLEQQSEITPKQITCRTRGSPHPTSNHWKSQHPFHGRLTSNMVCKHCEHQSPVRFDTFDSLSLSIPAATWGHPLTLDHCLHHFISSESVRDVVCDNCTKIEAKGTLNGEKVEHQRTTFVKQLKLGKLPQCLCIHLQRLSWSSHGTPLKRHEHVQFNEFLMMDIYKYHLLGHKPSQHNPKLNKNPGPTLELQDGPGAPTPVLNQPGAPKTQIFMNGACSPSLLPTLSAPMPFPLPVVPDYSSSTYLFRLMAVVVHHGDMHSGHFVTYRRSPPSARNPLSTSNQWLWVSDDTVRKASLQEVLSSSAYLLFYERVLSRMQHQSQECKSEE

`CC(C)(C)NS(=O)(=O)c1ccc(-c2nc([C@H](Cc3ccccc3)NC(=O)c3ccc(F)cc3)n[nH]2)cc1` (stereo in doubt) [Compound I-55, N-(1-(5-(4-(N-(tert-butyl)sulfamoyl)phenyl)-1H-1,2,4-triazol-3-yl)-2-phenylethyl)-4-fluorobenzamide] and `CC(C)(C)NS(=O)(=O)c1ccc(NC(=O)[C@H](Cc2ccccc2)c2nnc(-c3ccc(F)cc3)o2)cc1` (stereo in doubt) [Compound I-56, N-(4-(N-(tert-butyl)sulfamoyl)phenyl)-2-(5-(4-fluorophenyl)-1,3,4-oxadiazol-2-yl)-3-phenylpropanamide] fall in the same range of IC50: 1 to 10 µM for the first, 1 to 10 µM for the second.

First: O=C(N[C@@H](CC1CCOCC1)C(=O)Nc1ccc(S(=O)(=O)NC2COC2)nc1)c1ccc(F)cc1 [Compound I-5]
Second: O=C(N[C@@H](CC1CCOCC1)C(=O)Nc1cccc2c(S(=O)(=O)NC3COC3)cccc12)c1ccc(F)cc1 [Compound I-10]
The IC50 of the first is lower: 0.05 to 1 µM for the first, 1 to 10 µM for the second. The first is the more potent here.

First: COCCC(C)(C)NS(=O)(=O)c1ccc(NC(=O)[C@H](CC2CCOCC2)NC(=O)c2ccc(F)cc2)cc1 [Compound I-7]
Second: COCC[C@H](NC(=O)c1ccc(F)cc1)C(=O)Nc1ccc(S(=O)(=O)NC(C)(C)CN2CCOCC2)cc1 [Compound I-27]
The IC50 of the first is lower: 0.05 to 1 µM for the first, 1 to 10 µM for the second. The first is the more potent here.

`CCNS(=O)(=O)c1cccc2c(NC(=O)[C@H](CC3CCOCC3)NC(=O)c3ccc(F)cc3)cccc12` [Compound I-9] and `CC(C)(C)NS(=O)(=O)c1ccc(NC(=O)[C@H](CC2CCNCC2)NC(=O)c2ccc(F)cc2)cc1` [Compound I-40, (S)—N-(1-((4-(N-(tert-butyl)sulfamoyl)phenyl)amino)-1-oxo-3-(piperidin-4-yl)propan-2-yl)-4-fluorobenzamide] fall in the same range of IC50: 0.05 to 1 µM for the first, 0.05 to 1 µM for the second.

`COc1cc(NC(=O)[C@H](CC(C)C)NC(=O)c2ccc(F)cc2)ccc1S(=O)(=O)NC(C)(C)C` [Compound I-13] and `COc1cc(NC(=O)[C@H](CC(C)C)NC(=O)c2ccc(F)cc2)ccc1S(=O)(=O)NC(C)(C)CO` [Compound I-14] fall in the same range of IC50: 0.05 to 1 µM for the first, 0.05 to 1 µM for the second.

`COc1cc(NC(=O)[C@H](CC(C)C)NC(=O)c2ccc(F)cc2)cnc1S(=O)(=O)NC(C)(C)C` [Compound I-15] and `CC(C)C[C@H](NC(=O)c1ccc(F)cc1)C(=O)Nc1ccc(S(=O)(=O)NC(C)(C)CO)nc1` [Compound I-17] fall in the same range of IC50: 0.05 to 1 µM for the first, 0.05 to 1 µM for the second.

First: COCCC(C)(C)NS(=O)(=O)c1ccc(NC(=O)[C@H](CC(C)C)NC(=O)c2ccc(F)cc2)cc1 [Compound I-18]
Second: COCCC(C)(C)NS(=O)(=O)c1ccc(NC(=O)[C@@H](CC(C)C)NC(=O)c2ccc(F)cc2)cc1 [Compound I-19]
The IC50 of the first is lower: 0.05 to 1 µM for the first, 1 to 10 µM for the second.

`CC(C)C[C@H](NC(=O)c1ccc(F)cc1)C(=O)Nc1ccc(S(=O)(=O)NC2COC2)cc1` [Compound I-22] and `CC(C)CC[C@H](NC(=O)c1ccc(F)cc1)C(=O)Nc1ccc(S(=O)(=O)NC2COC2)cc1` [Compound I-24] fall in the same range of IC50: 0.05 to 1 µM for the first, 0.05 to 1 µM for the second.

`CC(C)(C)C[C@H](NC(=O)c1ccc(F)cc1)C(=O)Nc1ccc(S(=O)(=O)NC(C)(C)C)cc1` [Compound I-25] and `CC(C)(C)NS(=O)(=O)c1ccc(NC(=O)[C@H](CC2COC2)NC(=O)c2ccc(F)cc2)cc1` [Compound I-38, (S)—N-(1-((4-(N-(tert-butyl)sulfamoyl)phenyl)amino)-3-(oxetan-3-yl)-1-oxopropan-2-yl)-4-fluorobenzamide] fall in the same range of IC50: 0.05 to 1 µM for the first, 0.05 to 1 µM for the second.

First: COCC[C@H](NC(=O)c1ccc(F)cc1)C(=O)Nc1ccc(S(=O)(=O)NC(C)(C)CO)cc1 [Compound I-26]
Second: COC[C@H](NC(=O)c1ccc(F)cc1)C(=O)Nc1ccc(S(=O)(=O)NC(C)(C)CO)cc1 [Compound I-32]
The IC50 of the first is lower: 0.05 to 1 µM for the first, 1 to 10 µM for the second.

`COCC[C@H](NC(=O)c1ccc(F)cc1)C(=O)Nc1ccc(S(=O)(=O)NC2COC2)cc1` [Compound I-28] and `COC[C@H](NC(=O)c1ccc(F)cc1)C(=O)Nc1ccc(S(=O)(=O)NC2COC2)cc1` [Compound I-34] fall in the same range of IC50: 1 to 10 µM for the first, 1 to 10 µM for the second.

`CC(C)(CO)NS(=O)(=O)c1ccc(NC(=O)[C@H](CCO)NC(=O)c2ccc(F)cc2)cc1` [Compound I-29] and `CC(C)(CO)NS(=O)(=O)c1ccc(NC(=O)[C@H](CO)NC(=O)c2ccc(F)cc2)cc1` [Compound I-35] fall in the same range of IC50: 1 to 10 µM for the first, 1 to 10 µM for the second.

`CC(C)(CN1CCOCC1)NS(=O)(=O)c1ccc(NC(=O)[C@H](CCO)NC(=O)c2ccc(F)cc2)cc1` [Compound I-30] and `COC[C@H](NC(=O)c1ccc(F)cc1)C(=O)Nc1ccc(S(=O)(=O)NC(C)(C)CN2CCOCC2)cc1` [Compound I-33] fall in the same range of IC50: 1 to 10 µM for the first, 1 to 10 µM for the second.

First: O=C(N[C@@H](CCO)C(=O)Nc1ccc(S(=O)(=O)NC2COC2)cc1)c1ccc(F)cc1 [Compound I-31]
Second: CN1CCC(C[C@H](NC(=O)c2ccc(F)cc2)C(=O)Nc2ccc(S(=O)(=O)NC(C)(C)CO)cc2)CC1 [Compound I-44]
The IC50 of the first is higher: 1 to 10 µM for the first, 0.05 to 1 µM for the second.

`CC(C)(C)NS(=O)(=O)c1ccc(NC(=O)[C@H](CC2CCN(C(=O)OCc3ccccc3)CC2)NC(=O)c2ccc(F)cc2)cc1` [Compound I-43, benzyl (S)-4-(3-((4-(N-(tert-butyl)sulfamoyl)phenyl)amino)-2-(4-fluorobenzamido)-3-oxopropyl)piperidine-1-carboxylate] gave an IC50 of 0.05 to 1 µM.

same assay, conditions: […] recombinant USP30, 25 nM Ubiquitin-Rhodamine, fluorescence

`COc1cc(NC(=O)[C@H](CC2CCOCC2)NC(=O)c2ccc(F)cc2)ccc1S(=O)(=O)NC(C)(C)C` [Compound I-2, (S)—N-(1-((4-(N-(tert-butyl)sulfamoyl)-3-methoxyphenyl)amino)-1-oxo-3-(tetrahydro-2H-pyran-4-yl)propan-2-yl)-4-fluorobenzamide] and `CC(C)(C)NS(=O)(=O)c1ccc(NC(=O)[C@H](CC2CCOCC2)NC(=O)c2ccc(F)cc2)cn1` [Compound I-4] cannot be ordered by IC50: less than 0.05 µM for the first, less than 0.05 µM for the second.

Going from `CC(C)(CCO)NS(=O)(=O)c1ccc(NC(=O)[C@H](CC2CCOCC2)NC(=O)c2ccc(F)cc2)cc1` [Compound I-6] to `CC(C)C[C@@H](NC(=O)c1ccc(F)cc1)C(=O)Nc1ccc(S(=O)(=O)NC(C)(C)CCO)cc1` [Compound I-21, (R)-4-fluoro-N-(1-((4-(N-(4-hydroxy-2-methylbutan-2-yl)sulfamoyl)phenyl)amino)-4-methyl-1-oxopentan-2-yl)benzamide], the IC50 rises from less than 0.05 µM to greater than 10 µM. The first is the more potent here.

First: CC(C)(C)NS(=O)(=O)c1cccc2c(NC(=O)[C@H](CC3CCOCC3)NC(=O)c3ccc(F)cc3)cccc12 [Compound I-8, (S)—N-(1-((5-(N-(tert-butyl)sulfamoyl)naphthalen-1-yl)amino)-1-oxo-3-(tetrahydro-2H-pyran-4-yl)propan-2-yl)-4-fluorobenzamide]
Second: CC(C)(C)NS(=O)(=O)c1ccc(NC(=O)[C@@H](CC2COC2)NC(=O)c2ccc(F)cc2)cc1 [Compound I-39, (R)—N-(1-((4-(N-(tert-butyl)sulfamoyl)phenyl)amino)-3-(oxetan-3-yl)-1-oxopropan-2-yl)-4-fluorobenzamide]
The IC50 of the first is lower: less than 0.05 µM for the first, greater than 10 µM for the second. The first is the more potent here.

Compared with `CC(C)C[C@@H](NC(=O)c1ccc(F)cc1)C(=O)Nc1ccc(S(=O)(=O)NC(C)(C)C)cc1` [Compound I-12], `CC(C)C[C@H](NC(=O)c1ccc(F)cc1)C(=O)Nc1ccc(S(=O)(=O)NC(C)(C)C)nc1` [Compound I-16] is lower in IC50: greater than 10 µM for the first, less than 0.05 µM for the second.

`CC(C)(CN1CCOCC1)NS(=O)(=O)c1ccc(NC(=O)[C@H](CO)NC(=O)c2ccc(F)cc2)cc1` [Compound I-36, (S)-4-fluoro-N-(3-hydroxy-1-((4-(N-(2-methyl-1-morpholinopropan-2-yl)sulfamoyl)phenyl)amino)-1-oxopropan-2-yl)benzamide] was tested, and the IC50 was greater than 10 µM.

— patent publication US20250162989A1, “USP30 INHIBITORS AND USES THEREOF” (Vincere Biosciences, Inc., priority 2021, published 2025)
